Measured values taken from ChEMBL document CHEMBL3351299, “Structural insights on carbonic anhydrase inhibitory action, isoform selectivity, and potency of sulfonamides and coumarins incorporating arylsulfonylureido groups” (J Med Chem, 2014).

Key:
Carbonic anhydrase 12 = Carbonic anhydrase 12 (Homo sapiens, UniProt O43570); test: Inhibition of human recombinant carbonic anhydrase 12 preincubated for 15 mins by stopped flow CO2 hydration method
Carbonic anhydrase 1 = Carbonic anhydrase 1 (Homo sapiens, UniProt P00915); test: Inhibition of human recombinant carbonic anhydrase 1 preincubated for 15 mins by stopped flow CO2 hydration method
Carbonic anhydrase 1, sequence (P00915 whole entry): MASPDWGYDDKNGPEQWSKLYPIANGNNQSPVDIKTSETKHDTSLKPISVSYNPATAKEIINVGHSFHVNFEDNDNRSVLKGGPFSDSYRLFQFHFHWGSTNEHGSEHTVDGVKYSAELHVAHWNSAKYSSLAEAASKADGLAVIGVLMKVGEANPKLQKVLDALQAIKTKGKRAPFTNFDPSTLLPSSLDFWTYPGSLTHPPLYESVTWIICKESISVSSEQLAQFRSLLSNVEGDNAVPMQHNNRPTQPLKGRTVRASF

Carbonic anhydrase 9 = Carbonic anhydrase 9 (Homo sapiens, UniProt Q16790)

Carbonic anhydrase 12, sequence (O43570 whole entry): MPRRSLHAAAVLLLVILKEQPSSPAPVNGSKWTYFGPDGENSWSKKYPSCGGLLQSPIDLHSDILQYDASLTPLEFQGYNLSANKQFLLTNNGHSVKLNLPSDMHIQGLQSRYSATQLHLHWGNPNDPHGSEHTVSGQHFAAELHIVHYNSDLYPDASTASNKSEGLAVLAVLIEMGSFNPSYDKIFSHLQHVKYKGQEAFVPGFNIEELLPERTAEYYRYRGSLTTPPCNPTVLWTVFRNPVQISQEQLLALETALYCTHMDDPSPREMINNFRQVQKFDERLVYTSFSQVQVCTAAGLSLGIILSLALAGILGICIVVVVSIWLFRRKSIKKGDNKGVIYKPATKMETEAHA

SMILES	Ki (Carbonic anhydrase 12)	Ki (Carbonic anhydrase 1)	Ki (Carbonic anhydrase 9)
Cc1ccccc1S(=O)(=O)NC(=O)Nc1ccc2c(C)cc(=O)oc2c1	8.9 nM	4970 nM	
Cc1cc(=O)oc2cc(NC(=O)NS(=O)(=O)c3ccc(Cl)cc3)ccc12		5730 nM	
NS(=O)(=O)c1ccc(CCNC(=O)NS(=O)(=O)c2ccc(Cl)cc2)cc1	5.6 nM	57.8 nM	9.7 nM
Cc1ccc(S(=O)(=O)NC(=O)NCCc2ccc(S(N)(=O)=O)cc2)cc1	6 nM	67.1 nM	9.2 nM
NS(=O)(=O)c1ccc(CCNC(=O)NS(=O)(=O)c2ccccc2Cl)cc1	5.1 nM	52.8 nM	78.9 nM
Cc1cc(=O)oc2cc(NC(=O)NS(=O)(=O)c3ccccc3)ccc12	68.5 nM	> 10000 nM	90.7 nM
NS(=O)(=O)c1ccc(CCNC(=O)NS(=O)(=O)c2ccccc2)cc1	5.9 nM	21.6 nM	9.6 nM
Cc1cc(=O)oc2cc(NC(=O)NS(=O)(=O)c3ccc(F)cc3)ccc12	7.7 nM	> 10000 nM	23.1 nM

Results, then the compound that gave them:

Ki (Carbonic anhydrase 12)	Ki (Carbonic anhydrase 1)	Ki (Carbonic anhydrase 9)	SMILES
6.8 nM	82.6 nM	68.4 nM	NS(=O)(=O)c1ccc(CCNC(=O)NS(=O)(=O)c2ccc(F)cc2)cc1
6.4 nM	64.2 nM		Cc1ccccc1S(=O)(=O)NC(=O)NCCc1ccc(S(N)(=O)=O)cc1
9.4 nM	> 10000 nM		Cc1ccc(S(=O)(=O)NC(=O)Nc2ccc3c(C)cc(=O)oc3c2)cc1
7.6 nM	2380 nM	87.8 nM	Cc1cc(=O)oc2cc(NC(=O)NS(=O)(=O)c3ccccc3Cl)ccc12
